Here are results for 22 molecules from patent publication US5861476A, “Peptides and compounds that bind to the IL-1 receptor” (Affymax Technologies N.V., priority 1995, dated 1999).

pIC50: −log10 of the molar value. Where a SMILES comes first, the peptide text is derived from it. Where no end group is shown, it is not given here. [ ]: non-standard residue; d: D form. Bpa = N[C@@H](Cc1ccc(C(=O)c2ccccc2)cc1)C(=O)O; Pip = O=C(O)[C@@H]1CCCCN1; Aze = O=C(O)[C@@H]1CCN1 Where only a bound is given, the exact number is not on record here.

The target in the first test is T1, IL-1RtI (Homo sapiens, UniProt P14778).
T1 construct: made in house; host or cells: recombinant host cells (one form soluble from baculovirus transformed host cells; another PIG-tailed and cleaved from the cell surface)
T1 sequence (P14778 18-336): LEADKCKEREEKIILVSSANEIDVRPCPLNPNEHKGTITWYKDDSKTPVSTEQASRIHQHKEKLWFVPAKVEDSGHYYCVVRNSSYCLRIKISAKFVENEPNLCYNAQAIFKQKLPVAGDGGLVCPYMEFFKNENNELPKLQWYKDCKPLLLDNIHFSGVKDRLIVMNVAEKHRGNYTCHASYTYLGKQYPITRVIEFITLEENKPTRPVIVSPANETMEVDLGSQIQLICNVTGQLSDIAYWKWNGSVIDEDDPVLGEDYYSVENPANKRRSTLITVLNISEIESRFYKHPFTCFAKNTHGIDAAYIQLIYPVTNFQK
Kind of test: Inhibition of 125I-IL-1α binding to IL-1RtI (Example 3).
Settings: not given
As for the experimental part:
This example provides the results of experiments conducted to determine an approximate IC50 for certain peptides of the invention. IC50 as used herein refers to the concentration of a compound which will inhibit 50% of the binding between a receptor and its ligand, e.g. IL-1RtI and IL-1. Stock solutions of each peptide were prepared. The appropriate amount of the peptide was dissolved in DMSO, and then nineteen volumes of binding buffer (RPMI 1640, 1% BSA, 20 mM HEPES, pH 7.2-7.3, and 0.1% sodium azide) were added to yield a 1 mM peptide, 5% DMSO stock solution.
One assay utilized a truncated IL-1RtI which had been immobilized on 96-well plates with an appropriate antibody, typically a non-blocking high affinity antibody. In other assays, cells expressing "full-length" IL-1RtI were used with results that yielded IC50 values about 5 to 10 fold lower than those determined using the truncated receptor. The cells were seeded onto Falcon 3072 96-well plates at about 10^5 cells per well, and the plates were incubated overnight at 37° C. in media containing serum. The following morning, the cells were checked to ensure that the cells were confluent and adhered to the bottom of the wells.
According to either assay protocol, the plates were then washed three times with binding buffer, and then 50 μl of binding buffer and 25 μl of a peptide solution (either the stock solution or a dilution thereof; each stock was subjected to five three fold dilutions) were added to each well. Then 25 μl of binding buffer containing ^125 I-IL-1α (final concentration of 90 pM) were added to each well to begin the assay. Each assay was carried out in duplicate. The plates were then incubated for two hours at 4° C. For peptides having particularly high affinities, the assay was run in 24 well plates allowing for higher levels of ligand (possible total volume of 2.5 ml instead of 100 μl in the 96 well plate), thereby minimizing the potential for ligand depletion.
After the two hour incubation, the wells were rinsed three times with ice cold PBS (a semi-automated cell harvesting device was used to conduct the rinse). The receptors or cells were then detached from the plates by adding 100 μl of 0.1N NaOH to each well and incubating the plates at room temperature for 20 minutes. After the 20 minute incubation, about 75 μl of the suspension was counted on a gamma counter, and the IC50 for each peptide was determined using computer assistance and the results of the gamma counting.
With FTWEESNAYYWQPY-NH2 [FTWEESNAYYWQPY-NH2], the pIC50 (usually the negative decadic logarithm of the IC50, by convention in mol/L) was over 6.30. For FEWTPGYWQPYALPL [FEWTPGYWQPYALPL], the pIC50 was over 6.30.

The test is the same for the next values; noted with them: inhibition of 125I-IL-1α binding to IL-1RtI; soluble peptide unless marked *.
In turn, DSYWWQPYALPL [DSYWWQ PYALPL] showed a pIC50 of at least 4.00. With `C[C@H](NC(=O)[C@@H](N)Cc1ccccc1)C(=O)N[C@@H](Cc1c[nH]c2ccccc12)C(=O)N[C@H](C(=O)N1CCC[C@H]1C(=O)NCC(=O)N[C@@H](Cc1ccc(O)cc1)C(=O)N[C@@H](Cc1c[nH]c2ccccc12)C(=O)N[C@@H](CCC(N)=O)C(=O)N1CC[C@H]1C(=O)N[C@@H](Cc1ccc(O)cc1)C(N)=O)[C@@H](C)O` [FAWTPGYWQJY--NH2] (H-FAWTPGYWQ[Aze]Y-NH2), the pIC50 was at least 6.30. In turn, GWYQPYALGF [GWYQPYALGF] gave a pIC50 of at least 4.00. VYWQPYSVQ [VYWQPYSVQ] had a pIC50 of at least 4.00. The same measure, in the same setting: the figure for WWQPYALPL [WWQPYALPL] is at least 4.00; for `C[C@@H](O)[C@H](NC(=O)[C@H](Cc1c[nH]c2ccccc12)NC(=O)[C@H](CCC(=O)O)NC(=O)[C@@H](N)Cc1ccccc1)C(=O)N1CCCC[C@H]1C(=O)NCC(=O)N[C@@H](Cc1ccc(O)cc1)C(=O)N[C@@H](Cc1c[nH]c2ccccc12)C(=O)N[C@@H](CCC(N)=O)C(=O)N1CC[C@H]1C(=O)N[C@@H](Cc1ccc(O)cc1)C(N)=O` [FEWTPecGYWQJY--NH2] (H-FEWT[Pip]GYWQ[Aze]Y-NH2) it is at least 6.30. In the case of GVVWYQPYALPL [GVVWYQ PYALPL], the pIC50 was under 4.00. AWVQPYATPLDE [AWVQPYATPLDE] gave a pIC50 of at least 4.00. Molecule `C[C@H](NC(=O)[C@H](Cc1c[nH]c2ccccc12)NC(=O)[C@H](CCC(=O)O)NC(=O)[C@@H](N)Cc1ccccc1)C(=O)N1CCC[C@H]1C(=O)NCC(=O)N[C@@H](Cc1ccc(O)cc1)C(=O)N[C@@H](Cc1c[nH]c2ccccc12)C(=O)N[C@@H](CCC(N)=O)C(=O)N1CC[C@H]1C(=O)N[C@@H](Cc1ccc(O)cc1)C(N)=O` [FEWAPGYWQJY--NH2] (H-FEWAPGYWQ[Aze]Y-NH2) showed a pIC50 of at least 6.30. The molecule YYSWQPYALPL [YYSWQ PYALPL] had a pIC50 of under 4.00.

In turn, RSQYYQPYALPL [RSQYYQ PYALPL] gave a pIC50 of at least 4.00.

With `C[C@H](NC(=O)[C@@H](NC(=O)[C@H](Cc1c[nH]c2ccccc12)NC(=O)[C@H](CCC(=O)O)NC(=O)[C@@H](N)Cc1ccccc1)[C@@H](C)O)C(=O)NCC(=O)N[C@@H](Cc1ccc(O)cc1)C(=O)N[C@@H](Cc1c[nH]c2ccccc12)C(=O)N[C@@H](CCC(N)=O)C(=O)N1CC[C@H]1C(=O)N[C@@H](Cc1ccc(O)cc1)C(N)=O` [FEWTAGYWQJY--NH2] (H-FEWTAGYWQ[Aze]Y-NH2), the negative-log IC50 (pIC50) was at least 6.30. Molecule SHLYWQPYSVQ [Peptide 2H2, SHLYWQPYSVQ] had a pIC50 of at least 4.00.

For FEWTPGYWQPY-NH2 [FEWTPGYWQPY--NH2], the pIC50 is at least 6.30.

As to RWEQPYVKDGWS [RWEQPYVKDGWS], the pIC50 is at least 4.00. Turning to TIIWEQPYALPL [TIIWEQ PYALPL], the pIC50 is at least 4.00. In turn, WLAWEQPYALPL [WLAWEQ PYALPL] had a negative-log IC50 (pIC50) of at least 4.00. Molecule `C[C@@H](O)[C@H](NC(=O)[C@H](Cc1ccc(C(=O)c2ccccc2)cc1)NC(=O)[C@H](CCC(=O)O)NC(=O)[C@@H](N)Cc1ccccc1)C(=O)N1CCC[C@H]1C(=O)NCC(=O)N[C@@H](Cc1ccc(O)cc1)C(=O)N[C@@H](Cc1ccc(O)cc1)C(=O)N[C@@H](CCC(N)=O)C(=O)N1CC[C@H]1C(=O)N[C@@H](Cc1ccc(O)cc1)C(N)=O` [FE--Bpa--TPGYYQJY--NH2] (H-FE[Bpa]TPGYYQ[Aze]Y-NH2) gave a pIC50 of under 4.00.

For the molecule RFDYWQPYSDQT [RFDYWQPYSDQT], the pIC50 was at least 4.00.

With EIMFWQPYALPL [EIMFWQ PYALPL], the pIC50 is at least 4.00.

FEWTPGYWQPYALPL [FEWTPGYWQPYALPL] gave a pIC50 of at least 6.30.
